Experimental data published in paper PMC10071493 (ACS chemical neuroscience, 2021).

Target: MC-I from the bovine heart (mitochondrial complex I) (Bos taurus, UniProt P25708)
Assay: microscale thermophoresis, label-free
Format: binding

MC-I from the bovine heart (mitochondrial complex I), sequence (P25708 21-464, one chain of several): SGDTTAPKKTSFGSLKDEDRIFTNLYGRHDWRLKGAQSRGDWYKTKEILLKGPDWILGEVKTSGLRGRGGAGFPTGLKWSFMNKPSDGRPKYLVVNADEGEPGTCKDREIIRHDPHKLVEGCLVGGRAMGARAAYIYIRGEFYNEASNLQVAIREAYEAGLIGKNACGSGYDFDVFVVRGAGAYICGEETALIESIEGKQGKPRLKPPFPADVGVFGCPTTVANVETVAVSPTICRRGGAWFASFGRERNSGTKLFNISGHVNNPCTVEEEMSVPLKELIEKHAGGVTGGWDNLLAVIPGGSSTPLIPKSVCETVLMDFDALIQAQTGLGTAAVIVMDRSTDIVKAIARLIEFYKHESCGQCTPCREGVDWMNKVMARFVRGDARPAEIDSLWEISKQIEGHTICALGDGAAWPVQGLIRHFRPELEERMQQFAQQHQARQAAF

COc1ccc2[nH]cc(CCNC(=O)CC(=O)CCc3ccc(F)cc3)c2c1 [compound 2, 5-(4-Fluorophenyl)-N-(2-(5-methoxy-1H-indol-3-yl)ethyl)-3-oxo-pentanamide]
Kd: ~500 nM
